Measured values reported in patent publication US20260285857A1, “BICYCLIC AND HETEROCYCLIC AMIDE COMPOUNDS” (priority 2024, published 2026).

These compounds were tested on immunoglobulin light chain protein WIL-FL T46L (assay: Differential scanning fluorimetry (thermal shift) assay). Settings: Table A; temperature shift [Tm]compound-[Tm]vehicle; recombinant WIL-FL T46L.
Assay type: binding

| Compound | DSF |
| --- | --- |
| Cc1cc(N2CC[C@](C)(c3ccccc3)C2)cn2nc(C(=O)N3Cc4nc(-c5cccc(C(=O)O)n5)oc4C3)nc12 [Compound 250] | ***** (>2.5° C.=*****) |
| Cc1cc(N2CCC(NC(=O)c3nc4c(C)cc(N5CC[C@](C)(c6ccccc6)C5)cn4n3)CC2)cc(C(=O)O)n1 [Compound 251] | ***** (>2.5° C.=*****) |
| Cc1cc(N2CC[C@](C)(c3ccccc3)C2)cn2nc(C(=O)N3C[C@@]4(C)CN(c5cccc(C(=O)O)n5)C[C@@]4(C)C3)nc12 [Compound 252] | ***** (>2.5° C.=*****) |
| Cc1cc(N2CC[C@](C)(c3ccccc3)C2)cn2nc(C(=O)N3CCC4(CCN(c5ncno5)C4)C3)nc12 (stereo partly drawn) [Compound 253] | ***** (>2.5° C.=*****) |
| Cc1cc(N2CC[C@](C)(c3ccccc3)C2)cn2nc(C(=O)NC3CCC(c4cccc(C(=O)O)n4)OC3)nc12 (stereo partly drawn) [Compound 254] | ***** (>2.5° C.=*****) |
| Cc1cc(N2CC[C@](C)(c3ccccc3)C2)cn2nc(C(=O)N3CC4CN(c5cccc(C(=O)O)n5)CC4(C(N)=O)C3)nc12 (stereo partly drawn) [Compound 255] | ***** (>2.5° C.=*****) |
| Cc1cc(N2CC[C@](C)(c3ccccc3)C2)cn2nc(C(=O)N3CCC4(CCN(c5ccnc(C(=O)O)c5)C4)C3)nc12 (stereo partly drawn) [Compound 257] | ***** (>2.5° C.=*****) |
| Cc1cc(N2CC[C@](C)(c3ccccc3)C2)cn2nc(C(=O)N3CCC4(CCN(c5cccc(C(=O)O)n5)C4)C3)nc12 (stereo partly drawn) [Compound 258] | ***** (>2.5° C.=*****) |
| Cc1cc(N2CC[C@](C)(c3ccccc3)C2)cn2nc(C(=O)N3CCOCC34CN(c3cccc(C(=O)O)n3)C4)nc12 [Compound 259] | ***** (>2.5° C.=*****) |
| Cc1cc(N2CC[C@](C)(c3ccccc3)C2)cn2nc(C(=O)N3CC4(CCN4Cc4cccc(C(=O)O)n4)C3)nc12 [Compound 260] | ***** (>2.5° C.=*****) |
| Cc1cc(N2CC[C@](C)(c3ccccc3)C2)cn2nc(C(=O)NC3CCN(c4cccc(C(=O)O)n4)CC3(C)C)nc12 (stereo partly drawn) [Compound 261] | ***** (>2.5° C.=*****) |
| Cc1cc(N2CC[C@](C)(c3ccccc3)C2)cn2nc(C(=O)Nc3ccnc(C(=O)O)c3)nc12 [Compound 262] | ***** (>2.5° C.=*****) |
| COC(=O)c1cc(N2CCC(NC(=O)c3nc4c(C)cc(N5CC[C@](C)(c6ccccc6)C5)cn4n3)CC2)ccn1 [Compound 263] | ***** (>2.5° C.=*****) |
| Cc1cc(N2CC[C@](C)(c3ccccc3)C2)cn2nc(C(=O)NC3CCN(c4ccnc(C(=O)O)c4)CC3)nc12 [Compound 264] | ***** (>2.5° C.=*****) |
| Cc1cc(N2CC[C@](C)(c3ccccc3)C2)cn2nc(C(=O)NC3CCN(c4cccnc4C(=O)O)CC3)nc12 [Compound 265] | ***** (>2.5° C.=*****) |
| Cc1cc(N2CC[C@](C)(c3ccccc3)C2)cn2nc(C(=O)N3CCC4(CCN(c5ccnc(C(=O)O)n5)C4)C3)nc12 (stereo partly drawn) [Compound 266] | ***** (>2.5° C.=*****) |
| Cc1cc(N2CC[C@](C)(c3ccccc3)C2)cn2nc(C(=O)N3CC[C@@]4(CCN(c5cccc(C(=O)O)n5)C4)C3)nc12 [Compound 267] | ***** (>2.5° C.=*****) |
| Cc1cc(N2CC[C@](C)(c3ccccc3)C2)cn2nc(C(=O)N3CC[C@]4(CCN(c5cccc(C(=O)O)n5)C4)C3)nc12 [Compound 268] | ***** (>2.5° C.=*****) |
| Cc1cc(N2CC[C@](C)(c3ccccc3)C2)cn2nc(C(=O)NC3CCC(O)(c4cccc(C(=O)O)n4)CC3)nc12 (stereo partly drawn) [Compound 269] | ***** (>2.5° C.=*****) |

| Compound | DSF |
| --- | --- |
| Cc1cc(N2CC[C@](C)(c3ccccc3)C2)cn2nc(C(=O)N3CC[C@]4(CCN(c5cc(C(=O)O)ccn5)C4)C3)nc12 [Compound 270] | ***** (>2.5° C.=*****) |
| Cc1cc(N2CC[C@](C)(c3ccccc3)C2)cn2nc(C(=O)NC3CCN(c4ccc(C(=O)O)nc4)C3)nc12 (stereo partly drawn) [Compound 271] | ***** (>2.5° C.=*****) |
| Cc1cc(N2CC3(CC(NC(=O)c4nc5c(C)cc(N6CC[C@](C)(c7ccccc7)C6)cn5n4)C3)C2)cc(C(=O)O)n1 [Compound 272] | ***** (>2.5° C.=*****) |
| Cc1cc(N2CC[C@](C)(c3ccccc3)C2)cn2nc(C(=O)NC3CCN(c4cccc(C(=O)O)c4)CC3)nc12 [Compound 273] | ***** (>2.5° C.=*****) |
| Cc1cc(N2CC[C@](C)(c3ccccc3)C2)cn2nc(C(=O)NC3CN(c4cccc(C(=O)O)n4)CCC3(C)C)nc12 (stereo partly drawn) [Compound 274] | ***** (>2.5° C.=*****) |
| Cc1cc(N2CC[C@](C)(c3ccccc3)C2)cn2nc(C(=O)NC3CCN(c4cccc(C(=O)O)n4)CC3)nc12 [Compound 276] | ***** (>2.5° C.=*****) |
| Cc1cc(N2CC[C@](C)(c3ccccc3)C2)cn2nc(C(=O)NC3CCN(c4ccnc(C(=O)O)c4)C3)nc12 (stereo partly drawn) [Compound 277] | ***** (>2.5° C.=*****) |
| Cc1cc(N2CC[C@](C)(c3ccccc3)C2)cn2nc(C(=O)N3CC4CN(c5ccnc(C(=O)O)c5)CC4C3)nc12 (stereo partly drawn) [Compound 278] | ***** (>2.5° C.=*****) |
| Cc1cc(N2CC[C@](C)(c3ccccc3)C2)cn2nc(C(=O)N3C[C@H]4C[C@@H]3C[C@H]4Oc3cccc(C(=O)O)n3)nc12 [Compound 280] | ***** (>2.5° C.=*****) |
| Cc1cc(N2CC[C@](C)(c3ccccc3)C2)cn2nc(C(=O)N3CC45CN(c6cccc(C(=O)O)n6)CC4(C3)C5)nc12 (stereo partly drawn) [Compound 281] | ***** (>2.5° C.=*****) |
| Cc1cc(N2CC[C@](C)(c3ccccc3)C2)cn2nc(C(=O)NC3(C)CCN(c4ccnc(C(=O)O)c4)CC3)nc12 [Compound 282] | ***** (>2.5° C.=*****) |
| Cc1cc(N2CC[C@](C)(c3ccccc3)C2)cn2nc(C(=O)NC3CCN(c4ccnc(S(C)(=N)=O)c4)CC3)nc12 (stereo partly drawn) [Compound 283] | ***** (>2.5° C.=*****) |
| Cc1cc(N2CC[C@](C)(c3ccccc3)C2)cn2nc(C(=O)NC3CCN(c4ccnc(-c5nnn[nH]5)c4)CC3)nc12 [Compound 284] | ***** (>2.5° C.=*****) |
| Cc1cc(N2CC[C@](C)(c3ccccc3)C2)cn2nc(C(=O)NC3CCN(c4cccc(-c5nnn[nH]5)n4)CC3)nc12 [Compound 285] | ***** (>2.5° C.=*****) |
| Cc1cc(N2CC[C@](C)(c3ccccc3)C2)cn2nc(C(=O)N3CCOC4(C3)CN(c3cccc(C(=O)O)n3)C4)nc12 [Compound 286] | ***** (>2.5° C.=*****) |
| Cc1cc(N2CC[C@](C)(c3ccccc3)C2)cn2nc(C(=O)N3CC4CN(c5cccc(C(=O)O)n5)CC(C3)O4)nc12 [Compound 287] | ***** (>2.5° C.=*****) |
| Cc1cc(N2CC[C@](C)(c3ccccc3)C2)cn2nc(C(=O)N3CCCN(c4cccc(C(=O)O)n4)CCC3)nc12 [Compound 288] | ***** (>2.5° C.=*****) |
| Cc1cc(N2CC[C@](C)(c3ccccc3)C2)cn2nc(C(=O)N3CCC4(CCN(C5CCCC(C(=O)O)C5)C4)C3)nc12 (stereo partly drawn) [Compound 289] | ***** (>2.5° C.=*****) |
| Cc1noc(N2CCC(NC(=O)c3nc4c(C)cc(N5CC[C@](C)(c6ccccc6)C5)cn4n3)CC2)n1 [Compound 290] | ***** (>2.5° C.=*****) |

| Compound | DSF |
| --- | --- |
| Cc1cc(N2CC3(CCC3c3ccccc3)C2)cn2nc(C(=O)N3C[C@@H]4CN(c5cccc(C(=O)O)n5)C[C@@H]4C3)nc12 (stereo partly drawn) [Compound 291] | ***** (>2.5° C.=*****) |
| CNC(=O)c1cc2c(N)cc(N3CC[C@](C)(c4ccccc4)C3)cn2n1 [Compound 292] | *** (>1-1.5° C.=***) |
| C[C@]1(c2ccccc2)CCN(c2cc(O)c3nc(C(=O)N4CC[C@@]5(CCN(c6cccc(C(=O)O)n6)C5)C4)nn3c2)C1 [Compound 293] | **** (>1.5-2.5° C.=****) |
| COc1cc(N2CC[C@](C)(c3ccccc3)C2)cn2nc(C(=O)N3CC[C@@]4(CCN(c5cccc(C(=O)O)n5)C4)C3)nc12 [Compound 294] | ***** (>2.5° C.=*****) |
| Cc1cc(N2CCC(C)(O)C2)cn2nc(C(=O)N3CC4CN(c5cccc(C(=O)O)n5)CC4C3)nc12 (stereo not drawn) [Compound 295] | * (0-0.5° C.=*) |
| Cc1cc(N2CCC(C)(C3CC4(CCC4)C3)C2)cn2nc(C(=O)N3C[C@@H]4CN(c5cccc(C(=O)O)n5)C[C@@H]4C3)nc12 (stereo partly drawn) [Compound 296] | ** (>0.5-1 °C =**) |
| Cc1cc(N2CC3CC2(c2ccccc2)C3)cn2nc(C(=O)N3C[C@@H]4CN(c5cccc(C(=O)O)n5)C[C@@H]4C3)nc12 [Compound 297] | * (0-0.5° C.=*) |
| Cc1cc(N2CC(C)(C)C(C)(c3ccccc3)C2)cn2nc(C(=O)N3C[C@@H]4CN(c5cccc(C(=O)O)n5)C[C@@H]4C3)nc12 (stereo partly drawn) [Compound 298] | ** (>0.5-1 °C =**) |
| Cc1nsc(C2(C)CCN(c3cc(C)c4nc(C(=O)N5C[C@@H]6CN(c7cccc(C(=O)O)n7)C[C@@H]6C5)nn4c3)C2)n1 (stereo partly drawn) [Compound 299] | *** (>1-1.5° C.=***) |
| Cc1noc(C2(C)CCN(c3cc(C)c4nc(C(=O)N5C[C@@H]6CN(c7cccc(C(=O)O)n7)C[C@@H]6C5)nn4c3)C2)n1 (stereo partly drawn) [Compound 300] | *** (>1-1.5° C.=***) |
| Cc1nnc(C2(C)CCN(c3cc(C)c4nc(C(=O)N5C[C@@H]6CN(c7cccc(C(=O)O)n7)C[C@@H]6C5)nn4c3)C2)s1 (stereo partly drawn) [Compound 301] | * (0-0.5° C.=*) |
| Cc1cc(OC[C@H](C)c2ccccc2)cn2nc(C(=O)NC3COC4(CCOC4)C3)nc12 (stereo partly drawn) [Compound 303] | ***** (>2.5° C.=*****) |
| Cc1cc(OC[C@H](C)c2ccccc2)cn2nc(C(=O)N3CCC(Cc4ccc(C(=O)O)nc4)CC3)nc12 [Compound 304] | ***** (>2.5° C.=*****) |
| Cc1cc(OC[C@H](C)c2ccccc2)cn2nc(C(=O)NC3CCN(c4cccc(C(=O)O)n4)C3)nc12 (stereo partly drawn) [Compound 305] | ***** (>2.5° C.=*****) |
| Cc1cc(OC[C@H](C)c2ccccc2)cn2nc(C(=O)NCC34COC(C3)C4)nc12 [Compound 306] | ***** (>2.5° C.=*****) |
| Cc1cc(OC[C@H](C)c2ccccc2)cn2nc(C(=O)NC3CCN(c4cccc(C(=O)O)n4)CC3)nc12 [Compound 307] | ***** (>2.5° C.=*****) |
| Cc1cc(OC[C@H](C)c2cccc(F)c2)cn2nc(C(=O)NC3CCN(c4ccnc(C(=O)O)c4)CC3)nc12 [Compound 308] | ***** (>2.5° C.=*****) |
| Cc1cc(OC[C@H](C)c2cccc(F)c2)cn2nc(C(=O)N3CC[C@@](C)(O)C3)nc12 [Compound 309] | **** (>1.5-2.5° C.=****) |
| Cc1cc(OC[C@H](C)c2cccc(F)c2)cn2nc(C(=O)NC3CC4(C3)CC(N3CC5C(C3)C5C(=O)O)C4)nc12 (stereo partly drawn) [Compound 310] | ***** (>2.5° C.=*****) |
